Reference: patent US12240816B2, “Deuterated compounds and uses thereof” (Aldeyra Therapeutics, Inc., priority 2015, dated 2025)
One block for each molecule: values may come before it. Where a SMILES comes first, the peptide text is derived from it. Where no end group is shown, it is not given here.

Experiments:
Assay in all cases: biochemical
Type in all cases: biochemical
[1] = target: enzyme and uptake assay panel targets (Table 36) (Homo sapiens, UniProt P42574)
[2] = target: enzyme and uptake assay panel targets (Table 36) (Homo sapiens, UniProt Q14790); details: caspase-8 (h); reference compound
[3] = target: enzyme and uptake assay panel targets (Table 36) (Homo sapiens, UniProt P14780)
[4] = target: enzyme and uptake assay panel targets (Table 36) (Homo sapiens, UniProt P08253)
[5] = target: enzyme and uptake assay panel targets (Table 36) (Homo sapiens, UniProt P03956)
[6] = target: enzyme and uptake assay panel targets (Table 36) (Homo sapiens, UniProt P09917)
[7] = target: enzyme and uptake assay panel targets (Table 36) (Homo sapiens, UniProt P18054)
[8] = target: enzyme and uptake assay panel targets (Table 36) (Homo sapiens, UniProt P06241); details: Fyn kinase (h); reference compound
[9] = target: enzyme and uptake assay panel targets (Table 36) (Homo sapiens, UniProt P08473); details: Peptidase, Metalloproteinase, Neutral Endopeptidase; reference compound
[10] = target: enzyme and uptake assay panel targets (Table 36); details: COMT (catechol-O-methyl transferase); reference compound
[11] = target: T1, enzyme and uptake assay panel targets (Table 36) (Bos taurus, UniProt P80457)
T1 construct: other: xanthine oxidase/superoxide 02^−scavenging; nH; other: xanthine oxldase/superoxide 02 ^−scavenging; 1.0E−05M; ot; purified xanthine oxidase from bovine milk

[12] = target: enzyme and uptake assay panel targets (Table 36) (Homo sapiens, UniProt O76074); details: PDE5 (h) (non-selective); reference compound
[13] = target: enzyme and uptake assay panel targets (Table 36) (Homo sapiens, UniProt Q13370); details: PDE3B (h); reference compound
[14] = target: T2, enzyme and uptake assay panel targets (Table 36); details: ATPase (Na+/K+); reference compound
T2 construct: other: ATPase (Na+/K+); 1.0E−05M; nH; porcine cerebral cortex

[15] = target: T3, enzyme and uptake assay panel targets (Table 36) (Bos taurus, UniProt P11541+P23439); details: PDE6 (non-selective); reference compound
T3 construct: other: PDE6 (non-selective); 1.0E−05M; nH; bovine retina

[16] = target: enzyme and uptake assay panel targets (Table 36) (Homo sapiens, UniProt Q9UQM7); details: CaMK2α (h); reference compound

Sequence of enzyme and uptake assay panel targets (Table 36) (Homo sapiens, UniProt Q14790) (Q14790 217-479): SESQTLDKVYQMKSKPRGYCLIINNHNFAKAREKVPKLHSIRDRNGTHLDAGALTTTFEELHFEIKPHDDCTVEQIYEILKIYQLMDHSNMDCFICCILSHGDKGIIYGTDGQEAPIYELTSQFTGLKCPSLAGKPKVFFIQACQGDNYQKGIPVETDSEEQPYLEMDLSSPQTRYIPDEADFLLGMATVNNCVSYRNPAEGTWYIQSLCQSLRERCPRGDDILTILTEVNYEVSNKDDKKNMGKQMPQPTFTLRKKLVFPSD
Sequence of enzyme and uptake assay panel targets (Table 36) (Homo sapiens, UniProt P08473) (P08473 whole entry): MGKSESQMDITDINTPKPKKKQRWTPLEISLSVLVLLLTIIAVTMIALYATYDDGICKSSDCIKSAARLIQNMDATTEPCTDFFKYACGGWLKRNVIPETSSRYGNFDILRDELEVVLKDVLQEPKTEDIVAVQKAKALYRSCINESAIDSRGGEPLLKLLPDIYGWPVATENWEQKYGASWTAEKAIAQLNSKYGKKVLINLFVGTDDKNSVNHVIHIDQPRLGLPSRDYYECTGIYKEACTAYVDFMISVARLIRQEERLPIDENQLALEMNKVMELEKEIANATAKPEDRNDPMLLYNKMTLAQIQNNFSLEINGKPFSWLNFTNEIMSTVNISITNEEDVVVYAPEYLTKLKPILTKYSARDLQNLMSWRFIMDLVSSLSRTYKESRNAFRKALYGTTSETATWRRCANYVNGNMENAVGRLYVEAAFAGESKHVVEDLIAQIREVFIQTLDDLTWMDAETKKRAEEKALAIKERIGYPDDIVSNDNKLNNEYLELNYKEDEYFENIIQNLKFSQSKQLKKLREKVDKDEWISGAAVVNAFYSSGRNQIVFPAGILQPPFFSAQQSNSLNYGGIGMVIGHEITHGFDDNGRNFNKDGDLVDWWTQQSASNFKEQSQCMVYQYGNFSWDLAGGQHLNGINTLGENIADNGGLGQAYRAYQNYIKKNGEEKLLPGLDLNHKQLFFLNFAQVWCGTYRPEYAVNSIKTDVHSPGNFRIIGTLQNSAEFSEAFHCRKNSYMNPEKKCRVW
Sequence of enzyme and uptake assay panel targets (Table 36) (Homo sapiens, UniProt P42574) (P42574 29-277): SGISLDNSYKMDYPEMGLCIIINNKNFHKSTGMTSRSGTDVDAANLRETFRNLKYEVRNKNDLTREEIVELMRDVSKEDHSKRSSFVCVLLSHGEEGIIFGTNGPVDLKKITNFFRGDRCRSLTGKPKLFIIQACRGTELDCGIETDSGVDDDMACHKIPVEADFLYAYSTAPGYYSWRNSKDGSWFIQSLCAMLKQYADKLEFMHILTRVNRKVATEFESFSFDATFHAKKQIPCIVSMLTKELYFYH
T1 sequence (P80457 whole entry): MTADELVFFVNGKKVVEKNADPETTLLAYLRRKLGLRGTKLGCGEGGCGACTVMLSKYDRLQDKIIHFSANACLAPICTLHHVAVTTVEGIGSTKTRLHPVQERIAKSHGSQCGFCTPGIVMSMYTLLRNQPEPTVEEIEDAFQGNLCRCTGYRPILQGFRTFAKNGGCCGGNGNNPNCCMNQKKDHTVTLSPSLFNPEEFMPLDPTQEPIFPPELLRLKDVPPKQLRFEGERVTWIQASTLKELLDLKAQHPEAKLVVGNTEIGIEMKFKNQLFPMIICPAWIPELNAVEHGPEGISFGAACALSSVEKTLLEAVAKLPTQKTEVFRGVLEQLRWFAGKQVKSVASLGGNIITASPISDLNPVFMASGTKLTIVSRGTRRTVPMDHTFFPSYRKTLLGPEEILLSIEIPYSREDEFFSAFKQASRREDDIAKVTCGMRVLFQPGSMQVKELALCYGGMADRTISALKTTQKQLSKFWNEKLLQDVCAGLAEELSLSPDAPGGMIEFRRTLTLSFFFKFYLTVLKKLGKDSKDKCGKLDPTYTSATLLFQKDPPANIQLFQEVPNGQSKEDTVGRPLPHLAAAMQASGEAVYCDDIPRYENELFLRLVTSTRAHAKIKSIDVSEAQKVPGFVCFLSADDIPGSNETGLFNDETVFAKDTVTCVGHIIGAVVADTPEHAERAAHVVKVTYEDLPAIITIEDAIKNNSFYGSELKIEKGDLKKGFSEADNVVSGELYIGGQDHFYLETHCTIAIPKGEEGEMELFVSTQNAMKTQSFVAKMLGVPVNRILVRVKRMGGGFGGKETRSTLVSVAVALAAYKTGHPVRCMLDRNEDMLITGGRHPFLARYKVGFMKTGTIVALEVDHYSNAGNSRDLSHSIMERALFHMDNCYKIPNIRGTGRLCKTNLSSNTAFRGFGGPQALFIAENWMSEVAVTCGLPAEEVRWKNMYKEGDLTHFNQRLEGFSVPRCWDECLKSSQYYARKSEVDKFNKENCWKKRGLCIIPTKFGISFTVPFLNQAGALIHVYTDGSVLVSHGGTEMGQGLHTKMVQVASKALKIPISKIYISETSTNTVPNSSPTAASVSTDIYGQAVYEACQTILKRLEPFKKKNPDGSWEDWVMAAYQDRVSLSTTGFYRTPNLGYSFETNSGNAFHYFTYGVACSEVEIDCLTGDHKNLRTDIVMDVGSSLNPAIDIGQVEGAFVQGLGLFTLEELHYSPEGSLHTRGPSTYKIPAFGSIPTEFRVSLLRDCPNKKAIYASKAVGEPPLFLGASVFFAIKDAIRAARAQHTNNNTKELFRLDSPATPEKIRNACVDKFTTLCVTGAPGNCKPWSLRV
Sequence of enzyme and uptake assay panel targets (Table 36) (Homo sapiens, UniProt P14780) (P14780 94-707): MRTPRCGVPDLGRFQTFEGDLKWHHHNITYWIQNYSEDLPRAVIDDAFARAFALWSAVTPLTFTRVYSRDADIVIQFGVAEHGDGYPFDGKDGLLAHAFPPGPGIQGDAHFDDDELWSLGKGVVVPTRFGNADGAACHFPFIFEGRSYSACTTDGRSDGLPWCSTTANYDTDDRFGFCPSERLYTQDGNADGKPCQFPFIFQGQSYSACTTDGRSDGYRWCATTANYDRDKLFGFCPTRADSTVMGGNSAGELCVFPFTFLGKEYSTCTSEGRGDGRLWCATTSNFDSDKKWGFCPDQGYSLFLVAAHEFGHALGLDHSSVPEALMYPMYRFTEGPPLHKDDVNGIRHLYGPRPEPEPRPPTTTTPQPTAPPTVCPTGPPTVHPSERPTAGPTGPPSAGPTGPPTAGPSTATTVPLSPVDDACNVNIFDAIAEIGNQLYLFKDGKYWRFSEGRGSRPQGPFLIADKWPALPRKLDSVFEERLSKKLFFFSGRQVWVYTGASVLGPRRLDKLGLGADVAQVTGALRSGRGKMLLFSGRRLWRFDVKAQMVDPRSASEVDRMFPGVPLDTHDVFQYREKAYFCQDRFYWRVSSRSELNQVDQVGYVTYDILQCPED
Sequence of enzyme and uptake assay panel targets (Table 36) (Homo sapiens, UniProt P09917) (P09917 whole entry): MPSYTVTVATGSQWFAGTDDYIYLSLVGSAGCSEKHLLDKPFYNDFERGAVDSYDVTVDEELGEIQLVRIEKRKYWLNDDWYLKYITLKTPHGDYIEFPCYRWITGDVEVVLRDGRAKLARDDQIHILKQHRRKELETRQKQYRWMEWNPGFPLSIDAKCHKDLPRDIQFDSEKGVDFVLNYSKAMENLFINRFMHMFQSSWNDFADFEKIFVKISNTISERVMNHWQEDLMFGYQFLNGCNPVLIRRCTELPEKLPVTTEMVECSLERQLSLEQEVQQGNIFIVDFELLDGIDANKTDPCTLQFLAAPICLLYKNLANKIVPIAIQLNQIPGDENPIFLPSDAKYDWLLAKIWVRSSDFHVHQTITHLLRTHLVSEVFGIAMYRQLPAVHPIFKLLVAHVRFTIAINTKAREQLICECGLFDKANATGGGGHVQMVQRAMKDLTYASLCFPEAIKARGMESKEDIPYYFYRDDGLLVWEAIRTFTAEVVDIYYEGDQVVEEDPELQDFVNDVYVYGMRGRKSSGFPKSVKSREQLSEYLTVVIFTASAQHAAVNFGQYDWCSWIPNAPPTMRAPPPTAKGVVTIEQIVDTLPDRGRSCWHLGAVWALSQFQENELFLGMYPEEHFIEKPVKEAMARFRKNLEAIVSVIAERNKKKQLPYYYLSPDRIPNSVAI
Sequence of enzyme and uptake assay panel targets (Table 36) (Homo sapiens, UniProt P18054) (P18054 whole entry): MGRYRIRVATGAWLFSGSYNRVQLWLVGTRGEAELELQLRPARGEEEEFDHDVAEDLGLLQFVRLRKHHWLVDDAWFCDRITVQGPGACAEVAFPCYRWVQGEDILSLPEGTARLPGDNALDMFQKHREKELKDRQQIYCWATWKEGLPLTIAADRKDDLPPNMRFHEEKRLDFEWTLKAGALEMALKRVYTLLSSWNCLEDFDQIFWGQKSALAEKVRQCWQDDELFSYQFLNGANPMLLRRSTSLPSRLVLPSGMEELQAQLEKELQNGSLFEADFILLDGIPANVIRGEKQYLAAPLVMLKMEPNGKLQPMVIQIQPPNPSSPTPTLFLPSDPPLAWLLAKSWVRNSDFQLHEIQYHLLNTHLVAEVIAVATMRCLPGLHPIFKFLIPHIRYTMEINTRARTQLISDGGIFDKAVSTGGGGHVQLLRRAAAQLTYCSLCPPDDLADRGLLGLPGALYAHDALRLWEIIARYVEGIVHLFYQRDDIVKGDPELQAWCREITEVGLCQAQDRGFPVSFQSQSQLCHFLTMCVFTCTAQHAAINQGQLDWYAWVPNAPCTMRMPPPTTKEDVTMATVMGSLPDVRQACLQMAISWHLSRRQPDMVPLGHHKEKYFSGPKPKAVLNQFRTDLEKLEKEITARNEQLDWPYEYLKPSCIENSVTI
Sequence of enzyme and uptake assay panel targets (Table 36) (Homo sapiens, UniProt P03956) (P03956 100-469): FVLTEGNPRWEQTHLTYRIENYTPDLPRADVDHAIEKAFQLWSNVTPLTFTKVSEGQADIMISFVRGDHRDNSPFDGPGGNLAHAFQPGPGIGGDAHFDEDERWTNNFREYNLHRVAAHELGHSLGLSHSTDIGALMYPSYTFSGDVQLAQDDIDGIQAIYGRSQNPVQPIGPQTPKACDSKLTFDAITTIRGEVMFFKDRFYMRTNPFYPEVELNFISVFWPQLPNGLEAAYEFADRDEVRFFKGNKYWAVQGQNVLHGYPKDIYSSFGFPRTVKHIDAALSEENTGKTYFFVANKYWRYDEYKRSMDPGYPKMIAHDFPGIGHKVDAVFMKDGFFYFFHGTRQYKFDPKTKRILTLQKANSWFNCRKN

Molecule: CC(=O)N[C@@H](CC(=O)O)C(=O)N[C@@H](CCC(=O)O)C(=O)N[C@H](C(=O)N[C@H](C=O)CC(=O)O)C(C)C [Ac-DEVD-CHO]
nH [1]: 1.1

IC50 [2]: 28 nM
nH [2]: 0.8
Molecule: CC[C@H](C)[C@H](NC(C)=O)C(=O)N[C@@H](CCC(=O)O)C(=O)N[C@H](C(=O)N[C@H](C=O)CC(=O)O)[C@@H](C)O [Ac-IETD-CHO] (Ac-IETD-aldehyde)

Molecule: CNC(=O)[C@H](Cc1c[nH]c2ccccc12)NC(=O)[C@@H](CC(=O)NO)CC(C)C [GM6001]
nH [3]: 0.9
nH [4]: 1.3
nH [5]: 1.3

Molecule: CC(Cc1ccc(O)c(O)c1)C(C)Cc1ccc(O)c(O)c1 (stereo not drawn) [NDGA]
nH [6]: 1.6
nH [7]: 1.2

Molecule: Cc1ccc(-c2nn(C(C)(C)C)c3ncnc(N)c23)cc1 [PP1]
nH [8]: >3

IC50 [9]: 16 nM
nH [9]: 0.9
Molecule: CC(C)C[C@H](NP(=O)(O)O[C@@H]1O[C@@H](C)[C@H](O)[C@@H](O)[C@H]1O)C(=O)N[C@@H](Cc1c[nH]c2ccccc12)C(=O)O [Phosphoramidon]

Molecule: O=C(c1cc(O)c(O)c([N+](=O)[O-])c1)c1ccccc1F [Ro 41-0960]
IC50 [10]: 30 nM

Molecule: Oc1ncnc2[nH]ncc12 [allopurinol]
nH [11]: 1.3

nH [12]: 1.1
Molecule: OCCN(CCO)c1nc(N2CCCCC2)c2nc(N(CCO)CCO)nc(N3CCCCC3)c2n1 [dipyridamole]

nH [13]: 0.9
Molecule: Cc1[nH]c(=O)c(C#N)cc1-c1ccncc1 [milrinone]

Molecule: C[C@@H]1O[C@@H](O[C@H]2C[C@@H](O)[C@]3(CO)[C@H]4[C@H](O)C[C@]5(C)[C@@H](C6=CC(=O)OC6)CC[C@]5(O)[C@@H]4CC[C@]3(O)C2)[C@H](O)[C@H](O)[C@H]1O [ouabain]
IC50 [14]: 1000 nM

Molecule: CCCOc1ccccc1-c1nc2nn[nH]c2c(=O)[nH]1 [zaprinast]
nH [15]: 1.0

IC50 [16]: 260 nM
Molecule: KKALRRQEAVDAL [AIP]
